Data from PubChem BioAssay AID2047 (NMMLSC, 2009).
Each block holds one compound with its values, some of them ahead of it.

Molecular target: GTPase HRas (Homo sapiens) (UniProt P01112)
Assay: inhibition of fluorescent GTP binding to wild-type Ras – biochemical, pyrazoline analogs, multiplex bead flow cytometry, SAR follow-up (AID 2047)
Conditions: GST-Ras beads, Bodipy-FL-GTP binding, Ki calculated from EC50

Chain of GTPase HRas (Homo sapiens) (P01112 whole entry, looked up): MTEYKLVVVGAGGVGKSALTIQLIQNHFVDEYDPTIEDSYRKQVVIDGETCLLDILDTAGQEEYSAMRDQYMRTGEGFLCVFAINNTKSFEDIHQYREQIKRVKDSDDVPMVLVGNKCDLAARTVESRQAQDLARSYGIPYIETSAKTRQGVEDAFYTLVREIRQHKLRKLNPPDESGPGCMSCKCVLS

Compound: COc1ccc(C2CC(c3ccc(Cl)cc3)=NN2c2ccccc2)cc1OC (stereo unspecified)
- Ki: 10 nM

Compound: NS(=O)(=O)c1ccc(N2N=C(c3ccc(Cl)cc3)CC2c2ccccc2)cc1 (stereo unspecified)
- Ki: 10 nM

Compound: COc1ccc(C2=NN(c3ccccc3F)C(c3ccc(F)cc3)C2)cc1 (stereo unspecified)
- Ki: 2110 nM

Second part, the compound after the results:

- Ki: 160 nM
Compound: COc1ccc(C2CC(c3ccccc3)=NN2c2ccc(Cl)c(C(=O)O)c2)cc1 (stereo unspecified)

- Ki: 2770 nM
Compound: COc1ccc(C2=NN(c3ccccc3)C(c3ccccc3C(F)(F)F)C2)cc1 (stereo unspecified)

- Ki: 10 nM
Compound: CN(C)c1ccc(C2CC(c3ccccc3)=NN2c2ccccc2)cc1 (stereo unspecified)
